For the test, the system named is CEM cells HIV-1 protection, formazan growth assay. The test can be described thus: NCI AIDS Antiviral Assay. To be noted: for IC50: measured here: growth of uninfected CEM cells. The method, boiled down:
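Steps: treat uninfected and HIV-1-infected human CEM cells at five drug levels; quantify growth by soluble formazan; retest any compound reaching 50% protection; classify actives from the retest.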

The structures appear in SMILES notation. Active and inactive are the calls of the source.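 Rule for the calls: active = compounds giving half or more protection of infected cells from virus-caused growth loss, again on retest; inactive = the rest.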

By EC50 is commonly meant the concentration at which the effect is half-maximal. The term IC50 denotes the concentration needed to halve the response being measured. Low readings indicate inhibition by little substance, high ones a need for much substance. As for `O=C1C(c2[nH]c3cc4c(cc3c2O)OCO4)=Nc2cc3c(cc21)OCO3`, the EC50 is above 100 µM and the IC50 was 14.8 µM. The corresponding values for `CCOP(=S)(N/N=C1/CCCC(C)C1)OCC` (centres undefined) are above 200 µM and 102 µM.

Turning to `C=CCc1ccc(O)c(-c2cc(C3Oc4c(-c5cc(CC=C)ccc5O)cc(O)cc4[C@@H]3CO)ccc2O)c1` (some centres undefined), the EC50 is above 100 µM and the IC50 was 91.2 µM. The corresponding values for `CC(C)(c1ccccc1)c1ccc(OC#N)cc1` are above 57.5 µM and above 57.5 µM. As to `COc1cc(OC)c(/C=N/N=C(\N)NO)c(OC)c1`, the EC50 is above 200 µM and the IC50 was above 200 µM. On to `CC(C)CCC[C@@H](C)C1CCC2[C@@H]3CCC4CC(CCC=C(c5cc(Cl)c(OC(=O)c6ccccc6)c(C(=O)O)c5)c5cc(Cl)c(OC(=O)c6ccccc6)c(C(=O)O)c5)CC[C@]4(C)C3CC[C@@]21C` (some centres undefined), for which the EC50 is above 200 µM and the IC50 worked out at 141 µM. For the compound `CC(C)(C)OC(=O)N1CCCCC(CCCC#Cc2ccccc2)C1=O` (centres undefined), the EC50 is above 38 µM and the IC50 is above 38 µM. `O=C(c1ccccc1)[C@@]12COc3ccccc3[C@@H]1ON=C2c1ccccc1`: the EC50 was above 10.7 µM and the IC50 was above 10.7 µM. `CCCCN(CCCC)P(=S)(OCC)OCC`: the EC50 was above 200 µM and the IC50 was above 200 µM.

Take `O=C(/C=C/c1ccccc1Cl)c1cccc2ccccc12`: the EC50 was above 9.33 µM and the IC50 was above 9.33 µM. For `CCOC(=O)C(=[N+]=[N-])C(=O)CN1C(=O)C2CC(C)=C(C)CC2C1O` (centres undefined), the EC50 is above 389 µM and the IC50 is above 389 µM. `CC(=O)Nc1ccccc1C[P+](c1ccccc1)(c1ccccc1)c1ccccc1`: the EC50 is above 200 µM and the IC50 was above 200 µM. In the case of `NCCSC12CC3CC(CC(C3)C1)C2`, the EC50 is above 200 µM and the IC50 amounted to 67.6 µM. The corresponding values for `Cc1ncc2c(c1O)COC2=O` are above 1510 µM and above 1510 µM.

With `COc1ccc(/C=C2\NC(=S)NC2=O)cc1`, the EC50 is above 200 µM and the IC50 amounted to 151 µM. The matching figures for `CCCCNC(=O)OCC(C)(CCC)COC(N)=O` (centres undefined): above 200 µM and 148 µM.

Consider `CCC1(CC(=O)N(C)C)C=CCN(C(=O)Oc2ccccc2)C1` (centres undefined), for which the EC50 was above 58.9 µM and the IC50 was above 58.9 µM. With `Cc1cn(C2CC(OP(=O)(O)OCC3CCC(n4ccc(N)nc4=O)O3)C(CO)O2)c(=O)[nH]c1=O` (centres undefined), the EC50 is 0.204 µM and the IC50 is 35.5 µM. The matching figures for `CC(NC1=NCCO1)c1ccsc1` (centres undefined): above 200 µM and 64.6 µM. In the case of `Cc1cc2c(cc1C)[n+](=O)c(C(=O)CC(=O)C(=O)Nc1ccccc1C(C)C)c(C)n2[O-]`, the EC50 was above 575 µM and the IC50 is above 575 µM. For the compound `CC1(C)Cc2c(oc3ncnc(N)c23)CS1`, the EC50 is above 288 µM and the IC50 was above 288 µM.

Turning to `O=C(Nc1ccc(/C=C/c2ccc(NC(=O)c3ccc(O)cc3O)cc2S(=O)(=O)O)c(S(=O)(=O)O)c1)c1ccc(O)cc1O`, the EC50 is above 151 µM and the IC50 was found to be 126 µM. The matching figures for `COC(=O)c1c(C)cccc1C1CN=NC12Cc1ccc(C)c(C)c1C2=O` (centres undefined): above 200 µM and 15.1 µM. With `COc1ccc(C(CC(=O)c2cccs2)C(=O)c2cccs2)cc1` (centres undefined), the EC50 is above 200 µM and the IC50 was above 200 µM. Regarding `O=C1CS(=O)(=O)CN1N1CS(=O)(=O)CC1=O`, the EC50 is above 200 µM and the half-maximal inhibitory concentration (IC50) was determined as 110 µM. Take `O=C(O)c1c2c(cc3c1CC(Cc1ccccc1)C3=O)CCC2` (centres undefined): the EC50 is above 200 µM and the IC50 was determined as 64.6 µM. Turning to `C=CCC1(C(=O)OC)CCC/C(=N\O)C1` (centres undefined), the EC50 is above 64.6 µM and the IC50 was above 64.6 µM. For `COC(=O)[C@H](COC(=O)/C=C/c1ccc(OC(C)=O)c(OC(C)=O)c1)NC(=O)/C=C/c1ccc(OC(C)=O)c(OC(C)=O)c1`, the EC50 is above 100 µM and the concentration for half-maximal inhibition (IC50) stood at 17.8 µM. On to `Cc1ccc([N+](=O)[O-])cc1NC(=O)Nc1onc(C)c1C`, for which the EC50 was above 200 µM and the IC50 was found to be 9.77 µM. As to `CC(=O)NC(CCCN(Cc1ccccc1)C(=O)N(C)N=O)C(=O)NCc1ccccc1` (centres undefined), the EC50 is above 112 µM and the IC50 was above 112 µM. Turning to `CCNc1nnc(-c2nsc3ccccc23)s1`, the EC50 was above 20 µM and the concentration for half-maximal inhibition (IC50) is above 20 µM.

In the case of `CN1CCCC(O)C1CNC12CC3CC(CC(C3)C1)C2` (centres undefined), the EC50 was above 794 µM and the IC50 is 245 µM. The corresponding values for `COc1ccc(-c2cc(-c3ccncc3)nc(N)c2-c2ccc(F)cc2)cc1` are above 174 µM and above 174 µM.

For the compound `CCC(=O)/C=C/c1ccccc1`, the EC50 was above 200 µM and the IC50 was 93.3 µM. The corresponding values for `CCc1n[nH]c(=O)n1/N=C/c1ccccc1O` are above 200 µM and above 200 µM. For the compound `CCOC(=O)c1ccn2c(c1)c(C#N)c1nc3ccccc3nc12`, the EC50 was above 16.6 µM and the IC50 is above 16.6 µM. Regarding `Cc1cc(C)c(C2CC(O)C(CO)O2)cc1C` (centres undefined), the EC50 is above 200 µM and the IC50 is above 200 µM. On to `COc1cc(C(=O)O)ccc1OS(=O)(=O)O`, for which the EC50 was above 200 µM and the IC50 was above 200 µM. Consider `Fc1cccc(Cl)c1C1SCc2nc3cc4ccccc4cc3n21` (centres undefined), for which the EC50 was above 200 µM and the concentration for half-maximal inhibition (IC50) was found to be 158 µM. The matching figures for `O=C(O)/C=C\C(=O)Nn1c(Cc2ccc(Cl)cc2)n[nH]c1=O`: above 200 µM and above 200 µM. Turning to `COC(=O)C1=C(C=O)C2C=CC1C2` (centres undefined), the outcome was inactive. For `O=C1CSC(c2ccc(Cl)cc2)N1c1ccc(Oc2ccc(Cl)cc2)c(Cl)c1` (centres undefined), the EC50 is above 200 µM and the IC50 stood at 24 µM. For the compound `Cn1c(=O)c2c(nc(NCCCCl)n2CC(=O)O)n(C)c1=O`, the EC50 was above 200 µM and the half-maximal inhibitory concentration (IC50) was above 200 µM.

For `COC(=O)c1c(C(=O)OC)c2cc(C(=O)c3ccccc3)ccn2c1Cl`, the EC50 is above 26.9 µM and the IC50 was above 26.9 µM. As to `COc1ccccc1C1SCc2nc3ccccc3n21` (centres undefined), the EC50 was above 91.2 µM and the IC50 turned out to be 36.3 µM.

Regarding `Cc1ccc2c(c1)SCc1c-2[nH]c2ccccc12`, the result was inactive. For the compound `CCOC(=O)CC(=O)NC1CC2CCC1(C)C2(C)C` (centres undefined), the EC50 was above 200 µM and the IC50 was above 200 µM. For `COC(=O)[C@]1(C)CCCC2(C)C1CC[C@H]1C=C(C)[C@H]3CCC12C3` (some centres undefined), the EC50 is above 112 µM and the IC50 is above 112 µM. With `Cc1ccccc1NC(=O)Cc1csc(N/N=C2\NC(=O)/C(=C/c3cccc([N+](=O)[O-])c3)S2)n1`, the EC50 is above 200 µM and the IC50 was above 100 µM.

In the case of `CCc1c(O)sc2c(c1=O)C(=NCC(C)C)CC(C)(C)N2`, the EC50 was above 32.4 µM and the IC50 was above 32.4 µM. As to `O=C(NCCCCNCCCNC(=O)c1cc(-c2ccccc2)nc2ccccc12)c1cc(-c2ccccc2)nc2ccccc12`, the EC50 is above 20 µM and the IC50 came to 3.16 µM. The matching figures for `NC1CCCCCCC1`: above 200 µM and above 200 µM. In the case of `CCCCCCCCCCCCC(CCCCCCCCCCCC)OP(=O)(O)O`, the result was inactive. On the same count and under the same terms, under `O=C1OCc2nc3c(c(-c4ccccc4C(F)(F)F)c21)C(=O)OC3` stands “inactive”.

The values above are taken from PubChem BioAssay AID179 (DTP/NCI, 2004).
